Source: paper PMC5282547, “The Proline/Arginine Dipeptide from Hexanucleotide Repeat Expanded C9ORF72 Inhibits the Proteasome” (eNeuro, 2017)
“Also recorded” adds a separate entry of the source. Where a SMILES comes first, the peptide text is derived from it. The star is where a group is joined. Cbz = O=C(OCc1ccccc1)*

Experiments:
[1] = tested on: ubiquitin-proteasome system; test: MG-132 flux assay (flux of ubiquitylated substrates through the UPS); assay type: cell-based, rat
Method: MG-132 (Sigma) was used to inhibit proteasomal function. Cells were initially treated with PR20 for a total of 48 h using the method outlined in PR20 treatment for biochemical assays. Four hours prior to lysis, these cells were treated with MG-132 or vehicle. The MG-132 was kept in a stock solution in DMSO. This was added directly to culture to achieve a final concentration of 5 μM. Cells were then lysed in RIPA buffer and immunoblotted for ubiquitin.
Ubiquitin analysis requires the use of deubiquitinase (DUB) inhibitors. Lysis without these inhibitors runs the risk of degradation of the substrates to be targeted. As such, N-ethylmaleimide (Sigma), a potent DUB inhibitor, was used in the lysis buffer. […] The remainder of the lysis procedure follows Cell lysis.
To test for group differences in the flux assay, a permutation test was used. This is a nonparametric statistical test that was implemented in MATLAB. […] The test first quantifies this by taking the average of each experimental group and then finding the difference of ratios. It then permutes two samples located in two groups randomly, and determines that difference between averages again. This is repeated 50,000 times, and a histogram is plotted. This histogram represents the distribution of random noise in the sample. Since a higher difference in the +MG132/−MG132 ratio is a more “significant” result, the percentage of the random noise produced from 50,000 permutations that is higher in magnitude than the true difference (calculated from un-permuted data) is the p value.
Permutations of a data point in a +MG132 into a group labeled −MG132 (or vice versa) were not allowed. […] Thus, this group difference was not interesting to us.

[2] = tested on: motor neurons; test: Motor neuron survival with IU1 co-treatment; assay type: cell-based, rat
Method: Days in vitro (DIV)14 mixed spinal cord cultures were exposed to PR20 or GR20 by addition of synthetic peptide to the media one time. Cultures were fixed 5 d later with freshly prepared 4% paraformaldehyde for 20 min, washed extensively with 0.1 M PBS, pH 7.4, and immunostained with SMI32 to identify motor neurons. […] Motor neurons were counted in three nonoverlapping, randomly selected fields on a coverslip using a 5[times objective, and the values from a single coverslip averaged.
For experiments involving IU1, DIV14 cultures were treated with PR20 or its vehicle, and every other day, IU1 (or vehicle) was added to the culture media to achieve a final concentration of 5 µM. At DIV19, cultures were fixed and motor neuron number determined as described above.

[3] = tested on: Dendra2-LC3; test: Autophagic flux assay, optical pulse labeling of Dendra2-LC3; assay type: cell-based, rat
Method: (§1) Primary spinal neurons were dissected from E15 rat pups and cultured at a density of 2.5 × 10^5 cells/ml on a laminin/poly-lysine-coated 96-well plate in motor neuron media. Four days after plating, neurons were transfected with Lipofectamine 2000 (Invitrogen). DNA-Lipofectamine mixtures were incubated with neurons for 20 min followed by rinsing. Neurons were then placed in 100 µL of conditioned media that was collected immediately prior to transfection and half fresh motor neuron media containing 4 µM PR20, resulting in a final concentration of 2 µM PR20.
(§2) Optical pulse labeling experiments were performed using an automated microscopy platform previously described by [Arrasate et al. (2004)] and [Barmada et al. (2014)]. A Nikon Eclipse Ti inverted microscope equipped with a PerfectFocus system, 20× objective lens and an Andor iXon3 897 EMCCD camera were used to acquire images. Samples were illuminated with a Sutter Instruments Lamba XL lamp. The microscope and related components were encased in custom-built plexiglass enclosure set to maintain the temperature at 37°C and CO2 at 5%. Semrock GFP and TRITC filters were used for excitation and detection. A Semrock 405-nm long-pass filter was used for photoactivation. Image acquisition and stage movements were accomplished in an automated fashion using µManager and original code written in BeanShell. For all experiments, photoconversion occurred 24 h following transfection. GFP and TRITC images were acquired immediately following activation and subsequently every 2 h for 12 h. Images were acquired in a similar 12-h window starting 48 h after PR20 treatment. Using in-house image analysis scripts, neuronal cell bodies were identified based on their fluorescent intensity and morphology, and a ROI was drawn around the perimeter of each cell at each time. Single-cell TRITC intensity values were recorded and used to fit a first order exponential decay curve for individual neurons and calculate a Dendra2-light chain 3 (LC3) half-life for each cell. […]

[4] = tested on: motor neurons; test: Motor neuron survival in mixed spinal cord cultures (SMI32 counts), LD50 determination; assay type: cell-based, rat
Method: Mixed spinal cord neuron cultures were prepared as described previously ([Mojsilovic-Petrovic et al., 2006]). Briefly, an astrocyte feeder layer was prepared from the cortex of newborn Sprague Dawley rat pups [postnatal day 2 (P2)] and grown to ∼80% confluency. Subsequently, dissociated embryonic day 15 (E15) spinal cord neurons were added. One to two days later, AraC ([…]) (catalog #C6645; Sigma) was added for 24 h to arrest astrocyte proliferation. Cultures were maintained in glia-conditioned medium supplemented with the following trophic factors (1.0 ng/ml each): human neurotrophin-3, human neurotrophin-4, human brain-derived neurotrophic factor, and rat ciliary neurotrophic factor (Alomone Labs). Half of the culture medium was replaced on a biweekly basis.
Days in vitro (DIV)14 mixed spinal cord cultures were exposed to PR20 or GR20 by addition of synthetic peptide to the media one time. Cultures were fixed 5 d later with freshly prepared 4% paraformaldehyde for 20 min, washed extensively with 0.1 M PBS, pH 7.4, and immunostained with SMI32 to identify motor neurons. Immunopositive cells >25 µm in diameter are motor neurons based on their costaining for peripherin, ChAT, and islet 1/2 ([Mojsilovic-Petrovic et al., 2006]). Motor neurons were counted in three nonoverlapping, randomly selected fields on a coverslip using a 5[times objective, and the values from a single coverslip averaged. The results of 3-5 independently treated coverslips were the basis and means and variance used in statistical analysis. Each experiment was repeated with independently generated culture 4+ times ([Mojsilovic-Petrovic et al., 2006]).
Motor neuron survival 5 d later was determined. Once the approximate LD50 was determined, we repeated the analysis with more closely spaced concentrations for a more precise definition of the LD50. Determination of the LD50 of MG132 was accomplished in an identical manner.

[5] = tested on: Dendra2; test: Optical pulse labeling of Dendra2; assay type: cell-based, rat; conditions: vehicle 29.6 h
Method: as §1, §2

[6] = tested on: mixed spinal cord cultures; test: Cellular accumulation and disposal of HA-tagged DPR (immunoblot of cell lysates, continuous exposure or 2-h pulse-chase)
Method: Confluent dishes of astrocyte neuron cocultures at 37°C had volumes equalized to 2 ml of cell culture media each. Approximately 300 μl of media from each dish was removed and pooled with other dishes, PR20 stock solution was added, and the mixture was then added back to the corresponding culture dish, so that each dish contained a final concentration of 2 μM. All plates were incubated with PR20 for 48 h.
Lysis buffer was prepared containing 1% (v/v) protease inhibitor cocktail, 1% (v/v) PMSF, and 1% (v/v) leucine in 1% RIPA buffer solution on ice. Culture dishes were washed once with ice-cold PBS to remove any remaining media. A total of 125 μl (35-mm dish), 150 μl (6-well plate), or 250 μL (60-mm dish) of lysis buffer was added to each plate, and cells were scraped into a cold 1.5-ml tube. Samples were sonicated for 30 s at 20% intensity, placed on a rotator at 4°C for 20 min, and then centrifuged for 15 min at 13,200 rpm. Supernatant was then removed from each tube for further analysis.
We investigated the fate of PR20 in mixed spinal cord cultures through immunoblotting and immunocytochemistry. […] To gain further insight into the kinetics of the observed decrease in PR20 levels in cell lysates over time, we pulsed cells with 2 µM PR20 for 2 h, washed, replaced with fresh media (lacking PR20), and made cell lysates at regular intervals thereafter. […] To more easily follow GR20 by immunoblotting, we applied 10 µM GR20 to cultures and performed the same kinetic analysis as described in Figure 1D.

[7] = tested on: U2OS cells and human astrocytes; conditions: cited from earlier work
Excerpt: The difficulty of distinguishing between toxic HRE mRNA and DPR proteins has impeded our understanding of the mechanism underlying C9ORF72 HRE pathophysiology. As reported in Science ([Kwon et al., 2014]), the McKnight lab devised a strategy to overcome this problem: they studied U2OS cells and human astrocytes directly exposed to synthetic DPR proteins. […] We built upon this approa ...

[8] = 10 µM in media, continuous exposure

Q: What does the source list for `CC(C)C[C@@H](C=O)NC(=O)[C@H](CC(C)C)NC(=O)[C@H](CC(C)C)NC(=O)OCc1ccccc1` [MG132, reference compound] (Cbz-Leu-Leu-Leu-aldehyde)?
A: proteasomal flux versus control ([1]; 150 nM MG132 48 h, then 5 µM MG132 or vehicle 4 h, n = 6, p = 0.027): statistically significant reduction; motor neuron number compared with all other experimental groups ([2]; 150 nM MG132, 5 d, p = 0.001): statistically significantly fewer motor neurons; extension of Dendra2-LC3 half-life compared with control ([3]; 10 µM MG132, primary spinal neurons): 11.9 h; LD50, motor neuron number ([4]; added one time to mixed spinal cord cultures, counted 5 d later): 100 to 150 nM; Dendra2 half-life ([5]; MG132 (10 µM), p = 3.23 × 10^−5): 32.3 h

Q: Which results are given for “GR20: synthetic, HA-tagged dipeptide repeat protein: glycine/arginine repeated 20 times”?
A: proteasomal flux (difference in ubiquitin +/- MG-132) versus vehicle ([1]; peptide 48 h (PR20 2 µM), then MG-132 5 µM or vehicle 4 h, permutation test): neither influenced total ubiquitin levels nor proteasomal flux; period of maximal accumulation in cells [6, 8]: first hour; time point at which immunoblot signal is undetectable [6, 8]: 24 h; earliest detection in cell lysates ([6]; 10 µM in media, continuous exposure, anti-HA immunoblot): 15 min; lysate fractions with detectable Western blot signal at the 2-h time point ([6]; 2-h pulse-chase, 10 µM): soluble fraction only; time point by which signal diminishes to a barely detectable level ([6]; 2-h pulse-chase, 10 µM): 4 h; half-life of dipeptide in cells ([6]; immunoblot of mixed spinal cord culture lysates): on the orders of hours; detectability by immunoblotting in lysates ([6]; single 2-h application of 2 µM): weakly detectable; extension of Dendra2-LC3 half-life compared with control ([3]; 2 µM peptide, primary spinal neurons, single-cell optical pulse labeling): 1.5 h; toxic concentration range [7]: 10 to 30 µM; toxicity to motor neurons at ∼20 times higher concentration than PR20 ([4]; 5 d): not toxic; Dendra2 half-life ([5]; 2 µM peptide, not significantly different from vehicle): 31.0 h

Q: For `Cc1cc(C(=O)CN2CCCC2)c(C)n1-c1ccc(F)cc1` [IU1], which “effect of IU1 on MG132-induced reduction in motor neuron number” value ([2]; 5 µM IU1, 150 nM MG132, 5 d) is on record?
A: The value was “reversed”.

Q: What about the “effect of IU1 on PR20-induced motor neuron death” value ([2]; 5 µM IU1 every other day with PR20, 5 d, p < 0.05) of the same compound?
A: The value was “blocks the toxic effects; also recorded: rescued to control levels; also recorded: prevents this effect”.

Q: And the “effect of IU1 alone on motor neuron survival” value ([2]; 5 µM IU1 every other day, vehicle-treated cells, 5 d)?
A: The value was “not toxic; also recorded: did not influence the survival”.
